Results taken from patent US8802866B2, “Pyridinylimidazolone derivatives for the inhibition of PI3 kinases” (Merck Patent GmbH, priority 2009, dated 2014).

Key:
PI3Kalpha = PI3Kalpha (Homo sapiens, UniProt P42336); assay: Biochemical PI3Kalpha assay (neomycin SPA, lipid phosphorylation); settings: human recombinant GST-PI3K
Summary of the method: (§1)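 Recombinant PI3K incubated with lipid substrate and radioactive ATP for 120 min at room temperature with gentle stirring, then stopped with neomycin-coated PVT-SPA beads, ATP 60 mM and EDTA 6.2 mM in PBS. After 60 min bead binding and centrifugation, radioactive Ptdlns(3)P counted by scintillation.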

PI3Kbeta = PI3Kbeta (Homo sapiens, UniProt P42338); assay: Biochemical PI3Kbeta assay (neomycin SPA, lipid phosphorylation); settings: human recombinant GST-PI3K
Chain of PI3Kbeta (P42338 whole entry): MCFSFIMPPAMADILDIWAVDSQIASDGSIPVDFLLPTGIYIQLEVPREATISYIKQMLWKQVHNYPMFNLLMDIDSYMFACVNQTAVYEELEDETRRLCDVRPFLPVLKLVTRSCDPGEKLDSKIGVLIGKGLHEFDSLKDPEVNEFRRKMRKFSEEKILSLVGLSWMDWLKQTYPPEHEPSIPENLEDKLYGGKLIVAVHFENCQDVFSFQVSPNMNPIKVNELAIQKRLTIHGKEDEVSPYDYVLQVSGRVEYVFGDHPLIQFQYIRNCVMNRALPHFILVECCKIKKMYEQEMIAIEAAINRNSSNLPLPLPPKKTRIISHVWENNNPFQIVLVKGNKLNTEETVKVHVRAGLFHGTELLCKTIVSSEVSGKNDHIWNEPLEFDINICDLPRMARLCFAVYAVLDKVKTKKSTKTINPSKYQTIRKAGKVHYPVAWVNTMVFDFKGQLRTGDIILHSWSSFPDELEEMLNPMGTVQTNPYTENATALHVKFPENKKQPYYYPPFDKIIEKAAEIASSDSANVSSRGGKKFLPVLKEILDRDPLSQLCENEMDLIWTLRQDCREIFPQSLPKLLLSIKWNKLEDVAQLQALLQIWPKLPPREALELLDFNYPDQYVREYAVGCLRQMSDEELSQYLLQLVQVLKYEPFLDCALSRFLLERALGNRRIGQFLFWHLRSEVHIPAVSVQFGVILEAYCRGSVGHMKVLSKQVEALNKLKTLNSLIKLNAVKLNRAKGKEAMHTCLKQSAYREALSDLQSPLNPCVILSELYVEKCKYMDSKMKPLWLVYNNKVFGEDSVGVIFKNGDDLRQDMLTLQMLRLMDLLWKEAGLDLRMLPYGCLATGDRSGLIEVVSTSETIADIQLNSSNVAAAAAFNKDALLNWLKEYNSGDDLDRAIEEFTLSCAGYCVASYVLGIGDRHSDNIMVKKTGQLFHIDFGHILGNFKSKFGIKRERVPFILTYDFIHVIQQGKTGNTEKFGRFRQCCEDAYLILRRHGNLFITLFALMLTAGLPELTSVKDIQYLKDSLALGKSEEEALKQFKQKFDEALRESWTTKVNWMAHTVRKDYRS
Chain of PI3Kbeta (P27986 whole entry partner): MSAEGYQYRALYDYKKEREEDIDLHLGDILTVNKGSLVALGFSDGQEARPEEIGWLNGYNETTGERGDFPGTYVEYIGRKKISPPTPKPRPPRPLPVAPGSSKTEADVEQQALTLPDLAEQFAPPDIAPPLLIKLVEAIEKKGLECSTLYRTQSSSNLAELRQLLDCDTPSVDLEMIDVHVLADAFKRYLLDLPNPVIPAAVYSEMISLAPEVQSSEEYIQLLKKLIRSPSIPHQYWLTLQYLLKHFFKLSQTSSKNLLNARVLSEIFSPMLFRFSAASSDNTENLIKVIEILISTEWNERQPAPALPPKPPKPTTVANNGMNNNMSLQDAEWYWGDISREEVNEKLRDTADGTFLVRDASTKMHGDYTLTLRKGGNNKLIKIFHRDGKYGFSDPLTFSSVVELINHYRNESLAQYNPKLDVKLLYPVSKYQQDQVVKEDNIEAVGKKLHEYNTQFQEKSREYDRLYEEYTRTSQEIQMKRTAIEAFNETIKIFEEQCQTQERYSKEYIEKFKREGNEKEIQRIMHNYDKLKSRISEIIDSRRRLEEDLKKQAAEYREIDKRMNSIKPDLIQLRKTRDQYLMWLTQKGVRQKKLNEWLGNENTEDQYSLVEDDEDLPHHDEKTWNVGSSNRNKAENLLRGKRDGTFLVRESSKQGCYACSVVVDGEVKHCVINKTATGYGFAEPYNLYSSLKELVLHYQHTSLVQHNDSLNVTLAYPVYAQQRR
Summary of the method: as §1

[1] = target: recombinant PI3Kalpha (shortened form of the catalytic subunit) (Homo sapiens, UniProt P42336); assay: BIACORE PI3K binding assay (SPR); settings: 25° C.
Chain of recombinant PI3Kalpha (shortened form of the catalytic subunit) (P42336 151-1068 limits assumed): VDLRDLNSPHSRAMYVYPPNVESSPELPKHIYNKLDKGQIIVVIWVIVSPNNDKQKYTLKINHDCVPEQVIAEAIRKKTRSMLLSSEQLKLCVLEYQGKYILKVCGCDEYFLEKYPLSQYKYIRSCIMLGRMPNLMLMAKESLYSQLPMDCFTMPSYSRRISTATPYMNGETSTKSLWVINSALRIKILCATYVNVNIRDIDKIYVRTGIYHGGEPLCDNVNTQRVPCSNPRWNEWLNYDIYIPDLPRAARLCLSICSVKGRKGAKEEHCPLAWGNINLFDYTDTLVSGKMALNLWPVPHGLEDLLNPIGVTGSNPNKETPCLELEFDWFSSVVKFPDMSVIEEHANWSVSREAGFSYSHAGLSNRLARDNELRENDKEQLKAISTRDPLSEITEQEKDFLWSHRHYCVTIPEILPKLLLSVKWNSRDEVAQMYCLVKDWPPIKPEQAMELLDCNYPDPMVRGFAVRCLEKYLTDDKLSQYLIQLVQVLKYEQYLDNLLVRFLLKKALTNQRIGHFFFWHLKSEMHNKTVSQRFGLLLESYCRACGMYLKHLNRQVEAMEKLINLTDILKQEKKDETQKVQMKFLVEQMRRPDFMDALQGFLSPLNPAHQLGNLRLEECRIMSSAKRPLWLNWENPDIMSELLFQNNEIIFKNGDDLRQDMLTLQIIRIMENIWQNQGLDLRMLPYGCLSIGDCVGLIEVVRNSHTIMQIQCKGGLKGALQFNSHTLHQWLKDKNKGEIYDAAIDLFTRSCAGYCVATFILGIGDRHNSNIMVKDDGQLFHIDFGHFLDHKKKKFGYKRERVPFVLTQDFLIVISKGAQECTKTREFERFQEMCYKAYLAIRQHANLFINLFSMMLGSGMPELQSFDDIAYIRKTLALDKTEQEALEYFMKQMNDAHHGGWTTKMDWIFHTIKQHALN
Summary of the method: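 Contact time was 180 s and dissociation 240 s, in HEPES pH 7.40 buffer with 2% DMSO. Solvent-corrected, double-referenced data were fitted to a 1:1 model with mass transport.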

[2] = system: PI3K-dependent phosphorylation of PKB at Serin 473 in PC3 cells; assay: Cellular PI3K assay (P-S473-PKB Luminex assay in PC3 cells); format: cell-based; settings: Homo sapiens, PC-3, 0.5 h; PC3 cells, 30 min, serum-free, P-S473-PKB; read-out: IC50 (cell)
Summary of the method: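 PC3 cells were exposed for 30 min under serum-free conditions to 7 concentrations of compound, then lysed. Lysates were captured overnight at 4°C on anti-total-PKB Luminex beads and detected with P-S473-PKB antibody plus PE-labelled secondary.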

DNA-PK protein complex = DNA-PK protein complex (Homo sapiens, UniProt P78527); assay: Biochemical DNA-PK assay (FlashPlate)
Summary of the method: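 Streptavidin-coated FlashPlate radiometric kinase assay, stopped with 200 mM EDTA, then wells washed with 0.9% NaCl and bound radioactivity counted. Blank (non-specific reaction) defined with a proprietary kinase inhibitor at 10 μM.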

mTOR = target: T1, mTOR (Homo sapiens, UniProt P42345); assay: Biochemical mTOR assay (Millipore mTOR assay kit)
T1 construct: purchased Millipore 14-770
T1 sequence (P42345 1362-2549 limits assumed): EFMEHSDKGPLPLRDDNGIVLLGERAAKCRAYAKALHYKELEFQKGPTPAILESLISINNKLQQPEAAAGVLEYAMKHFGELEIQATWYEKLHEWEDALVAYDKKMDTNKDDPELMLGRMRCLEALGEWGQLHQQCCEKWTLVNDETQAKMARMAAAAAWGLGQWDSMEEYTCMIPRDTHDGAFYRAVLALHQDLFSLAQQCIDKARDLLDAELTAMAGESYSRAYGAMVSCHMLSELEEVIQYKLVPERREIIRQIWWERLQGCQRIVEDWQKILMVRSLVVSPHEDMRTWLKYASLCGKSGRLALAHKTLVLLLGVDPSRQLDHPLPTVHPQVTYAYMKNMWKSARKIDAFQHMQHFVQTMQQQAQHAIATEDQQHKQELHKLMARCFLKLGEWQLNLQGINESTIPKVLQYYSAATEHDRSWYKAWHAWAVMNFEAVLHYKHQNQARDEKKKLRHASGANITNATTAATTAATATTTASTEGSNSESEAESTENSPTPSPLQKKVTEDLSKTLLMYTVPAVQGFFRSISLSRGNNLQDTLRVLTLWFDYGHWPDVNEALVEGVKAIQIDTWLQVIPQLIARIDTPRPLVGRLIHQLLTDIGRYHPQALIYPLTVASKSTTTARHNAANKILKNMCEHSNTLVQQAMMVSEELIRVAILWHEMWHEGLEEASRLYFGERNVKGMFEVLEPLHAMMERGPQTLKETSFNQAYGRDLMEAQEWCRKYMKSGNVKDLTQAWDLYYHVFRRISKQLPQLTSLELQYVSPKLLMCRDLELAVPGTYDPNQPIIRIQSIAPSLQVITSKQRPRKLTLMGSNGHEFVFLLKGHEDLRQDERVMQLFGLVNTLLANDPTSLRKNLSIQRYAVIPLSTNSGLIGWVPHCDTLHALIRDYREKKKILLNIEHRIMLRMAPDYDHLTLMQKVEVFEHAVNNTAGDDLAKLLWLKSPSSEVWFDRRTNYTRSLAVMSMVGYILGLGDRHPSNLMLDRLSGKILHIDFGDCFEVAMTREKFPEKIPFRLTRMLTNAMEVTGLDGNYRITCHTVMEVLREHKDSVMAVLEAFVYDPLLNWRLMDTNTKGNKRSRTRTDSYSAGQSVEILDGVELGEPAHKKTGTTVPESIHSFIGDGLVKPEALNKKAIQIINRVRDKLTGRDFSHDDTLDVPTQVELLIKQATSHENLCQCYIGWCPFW
Description: The biochemical mTOR assay was carried out by the method described in the Millipore mTOR assay kit (catalogue number 14-770).

CK2 protein kinase = settings: cited from earlier work

Chain of PI3Kalpha (P42336 whole entry): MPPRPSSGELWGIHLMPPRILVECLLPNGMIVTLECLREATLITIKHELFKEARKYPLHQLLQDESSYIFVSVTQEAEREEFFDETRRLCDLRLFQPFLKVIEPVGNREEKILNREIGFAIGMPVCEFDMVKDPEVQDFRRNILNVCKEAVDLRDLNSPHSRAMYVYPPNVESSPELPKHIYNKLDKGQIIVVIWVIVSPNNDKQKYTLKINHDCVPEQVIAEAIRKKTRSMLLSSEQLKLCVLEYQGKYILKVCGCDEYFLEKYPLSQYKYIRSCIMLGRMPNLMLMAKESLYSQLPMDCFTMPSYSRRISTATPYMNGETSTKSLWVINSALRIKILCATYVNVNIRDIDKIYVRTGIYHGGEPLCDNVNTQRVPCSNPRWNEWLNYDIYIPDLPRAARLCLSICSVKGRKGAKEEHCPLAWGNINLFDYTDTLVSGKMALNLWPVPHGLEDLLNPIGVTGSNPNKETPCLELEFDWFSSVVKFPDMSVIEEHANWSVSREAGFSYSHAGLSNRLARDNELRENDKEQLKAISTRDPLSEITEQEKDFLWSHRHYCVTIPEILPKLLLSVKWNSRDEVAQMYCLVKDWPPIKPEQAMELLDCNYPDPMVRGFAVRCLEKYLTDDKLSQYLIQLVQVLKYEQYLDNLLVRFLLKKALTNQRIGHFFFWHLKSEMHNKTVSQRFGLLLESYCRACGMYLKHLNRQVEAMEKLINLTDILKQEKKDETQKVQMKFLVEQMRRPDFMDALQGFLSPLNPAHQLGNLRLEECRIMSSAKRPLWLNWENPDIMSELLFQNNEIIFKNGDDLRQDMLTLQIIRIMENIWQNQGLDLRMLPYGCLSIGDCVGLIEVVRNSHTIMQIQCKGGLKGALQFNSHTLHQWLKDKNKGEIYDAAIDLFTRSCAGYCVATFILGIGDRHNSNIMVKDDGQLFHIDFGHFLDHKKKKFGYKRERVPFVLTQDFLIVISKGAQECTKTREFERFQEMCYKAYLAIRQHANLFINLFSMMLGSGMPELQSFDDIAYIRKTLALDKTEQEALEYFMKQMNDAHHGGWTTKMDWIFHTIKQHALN
Chain of PI3Kalpha (P27986 whole entry partner): as the sequence (P27986 whole entry partner) above

| IC50 (PI3Kalpha) | IC50 (PI3Kbeta) | Kd [1] | IC50 [2] | IC50 (DNA-PK protein complex) | IC50 (mTOR) | melting point | SMILES | IC50 (CK2 protein kinase) |
| --- | --- | --- | --- | --- | --- | --- | --- | --- |
| 100 to 10000 nM | 100 to 10000 nM | 0.1 to 100 nM | 100 to 10000 nM | 0.1 to 100 nM | 100 to 10000 nM | 241 °C | CN1CCN(c2ccc(-n3c(-c4cc(-c5cnc6[nH]ccc6c5)ccn4)cn(C)c3=O)cc2C(F)(F)F)CC1 [Example A49, 1-Methyl-3-[4-(4-methylpiperazin-1-yl)-3-trifluoromethylphenyl]-4-[4-(1H-pyrrolo[2,3-b]pyridin-5-yl)pyridin-2-yl]-1,3-dihydroimidazol-2-one] | – |
| 100 to 10000 nM | 100 to 10000 nM | 0.1 to 100 nM | 100 to 10000 nM | 0.1 to 100 nM | 100 to 10000 nM | 165 °C | Cn1cc(-c2cc(-c3ccc4[nH]ncc4c3)ccn2)n(-c2ccc(C(C)(C)C#N)cc2)c1=O [Example A52, 2-(4-{5-[4-(1H-Indazol-5-yl)pyridin-2-yl]-3-methyl-2-oxo-2,3-dihydroimidazol-1-yl}phenyl)-2-methylpropionitrile] | – |
| 100 to 10000 nM | 100 to 10000 nM | 100 to 10000 nM | 100 to 10000 nM | 0.1 to 100 nM | 100 to 10000 nM | 265 °C | Cn1cc(-c2cc(-c3cnc4[nH]ccc4c3)ccn2)n(-c2cccc(C#N)c2)c1=O [Example A55, 3-{3-Methyl-2-oxo-5-[4-(1H-pyrrolo[2,3-b]pyridin-5-yl)pyridin-2-yl]-2,3-dihydro-imidazol-1-yl}benzonitrile] | – |
| – | – | – | – | – | – | – | O=c1cc(N2CCOCC2)oc2c(-c3ccccc3)cccc12 [LY294002] | 5000 to 10000 nM |
